ChEMBL document CHEMBL1140195, “Synthesis, screening for antitubercular activity and 3D-QSAR studies of substituted N-phenyl-6-methyl-2-oxo-4-phenyl-1,2,3,4-tetrahydro-pyrimidine-5-carboxamides” (2008)
In brackets after ≈: the same amount, converted by molar mass.

These compounds were tested on Mycobacterium tuberculosis (assay: Antitubercular activity against Mycobacterium tuberculosis).
Assay type: functional

Row | SMILES | MIC [µg/mL]
1 | CCCc1cc(=O)oc2c3c(c4c(c12)OC(C)(C)C=C4)O[C@H](C)[C@@H](C)[C@@H]3O [CALANOLIDE A] | 3.13 (≈ 8.45 µM)

These compounds were tested on Mycobacterium tuberculosis (assay: Antitubercular activity against Mycobacterium tuberculosis H37Rv at 6.25 ug/mL relative to control).
Assay type: functional

Row | SMILES | inhibition at 6.25 µg/mL [%]
2 | CC1=C(C(=O)Nc2cccc(C)c2C)C(c2cccc(Oc3ccccc3)c2)NC(=O)N1 (centres undefined) | 65
3 | CC1=C(C(=O)Nc2ccccc2F)C(c2cccc([N+](=O)[O-])c2)NC(=O)N1 (centres undefined) | 24
4 | CC1=C(C(=O)Nc2ccc(C)c(C)c2)C(c2cccc(Oc3ccccc3)c2)NC(=O)N1 (centres undefined) | 32
5 | CC1=C(C(=O)Nc2cc(C)ccc2C)C(c2cccc(Oc3ccccc3)c2)NC(=O)N1 (centres undefined) | 27
6 | CC1=C(C(=O)Nc2ccc(C)c(C)c2)C(c2ccc([N+](=O)[O-])cc2)NC(=O)N1 (centres undefined) | 13
7 | CC1=C(C(=O)Nc2ccc(Cl)cc2)C(c2cccc([N+](=O)[O-])c2)NC(=O)N1 (centres undefined) | 29
8 | CC1=C(C(=O)Nc2ccc(F)c(Cl)c2)C(c2cccc([N+](=O)[O-])c2)NC(=O)N1 (centres undefined) | 29
9 | CC1=C(C(=O)Nc2cc(C)ccc2C)C(c2ccc(Cl)cc2)NC(=O)N1 (centres undefined) | 6
10 | CC1=C(C(=O)Nc2cccc([N+](=O)[O-])c2)C(c2ccc(O)cc2)NC(=O)N1 (centres undefined) | 2
11 | CC1=C(C(=O)Nc2ccc(Cl)cc2)C(c2ccc([N+](=O)[O-])cc2)NC(=O)N1 (centres undefined) | 9
12 | COc1ccc(NC(=O)C2=C(C)NC(=O)NC2c2ccc([N+](=O)[O-])cc2)cc1 (centres undefined) | 21
13 | CC1=C(C(=O)Nc2ccccc2)C(c2ccc([N+](=O)[O-])cc2)NC(=O)N1 (centres undefined) | 25
14 | CC1=C(C(=O)Nc2ccccc2F)C(c2ccc([N+](=O)[O-])cc2)NC(=O)N1 (centres undefined) | 4
15 | CC1=C(C(=O)Nc2ccccc2F)C(c2ccc(O)cc2)NC(=O)N1 (centres undefined) | 18
16 | CC1=C(C(=O)Nc2ccc(C)cc2C)C(c2ccc([N+](=O)[O-])cc2)NC(=O)N1 (centres undefined) | 12
17 | CC1=C(C(=O)Nc2ccc(F)cc2)C(c2cccc(Cl)c2)NC(=O)N1 (centres undefined) | 38
18 | CC1=C(C(=O)Nc2ccccc2Cl)C(c2ccccc2[N+](=O)[O-])NC(=O)N1 (centres undefined) | 11
19 | COc1ccc(C2NC(=O)NC(C)=C2C(=O)Nc2cc(C)ccc2C)cc1 (centres undefined) | 2
20 | CC1=C(C(=O)Nc2ccccc2C)C(c2cccc([N+](=O)[O-])c2)NC(=O)N1 (centres undefined) | 6
21 | CC1=C(C(=O)Nc2ccc(F)c(Cl)c2)C(c2ccc([N+](=O)[O-])cc2)NC(=O)N1 (centres undefined) | 22
22 | CC1=C(C(=O)Nc2cc(Cl)ccc2Cl)C(c2ccc([N+](=O)[O-])cc2)NC(=O)N1 (centres undefined) | 18
23 | CC1=C(C(=O)Nc2cc(C)ccc2C)C(c2ccc([N+](=O)[O-])cc2)NC(=O)N1 (centres undefined) | 4
24 | CC1=C(C(=O)Nc2ccccc2Cl)C(c2ccc(Cl)cc2)NC(=O)N1 (centres undefined) | 26
25 | CC1=C(C(=O)Nc2ccc(C)cc2)C(c2cccc([N+](=O)[O-])c2)NC(=O)N1 (centres undefined) | 28
26 | CC1=C(C(=O)Nc2ccccc2Cl)C(c2cccc([N+](=O)[O-])c2)NC(=O)N1 (centres undefined) | 26
27 | CC1=C(C(=O)Nc2ccc(F)c(Cl)c2)C(c2cccc(Cl)c2)NC(=O)N1 (centres undefined) | 48
28 | CC1=C(C(=O)Nc2ccc(C)c(C)c2)C(c2cccc([N+](=O)[O-])c2)NC(=O)N1 (centres undefined) | 63
29 | CC1=C(C(=O)Nc2ccc(C)cc2C)C(c2ccc(O)cc2)NC(=O)N1 (centres undefined) | 12
30 | CC1=C(C(=O)Nc2ccc(F)cc2)C(c2cccc([N+](=O)[O-])c2)NC(=O)N1 (centres undefined) | 30

The compounds below were run on Mycobacterium tuberculosis (assay: Antitubercular activity against Mycobacterium tuberculosis H37Rv).
Assay type: functional

Row | SMILES | MIC [µg/mL]
31 | CC1=C(C(=O)Nc2cccc(C)c2C)C(c2cccc(Oc3ccccc3)c2)NC(=O)N1 (centres undefined) | > 6.25
32 | CC1=C(C(=O)Nc2ccccc2F)C(c2cccc([N+](=O)[O-])c2)NC(=O)N1 (centres undefined) | > 6.25
33 | CC1=C(C(=O)Nc2ccc(C)c(C)c2)C(c2cccc(Oc3ccccc3)c2)NC(=O)N1 (centres undefined) | > 6.25
34 | CC1=C(C(=O)Nc2cc(C)ccc2C)C(c2cccc(Oc3ccccc3)c2)NC(=O)N1 (centres undefined) | > 6.25
35 | CC1=C(C(=O)Nc2ccc(C)c(C)c2)C(c2ccc([N+](=O)[O-])cc2)NC(=O)N1 (centres undefined) | > 6.25
36 | CC1=C(C(=O)Nc2ccc(Cl)cc2)C(c2cccc([N+](=O)[O-])c2)NC(=O)N1 (centres undefined) | > 6.25
37 | CC1=C(C(=O)Nc2ccc(F)c(Cl)c2)C(c2cccc([N+](=O)[O-])c2)NC(=O)N1 (centres undefined) | > 6.25
38 | CC1=C(C(=O)Nc2cc(C)ccc2C)C(c2ccc(Cl)cc2)NC(=O)N1 (centres undefined) | > 6.25
39 | CC1=C(C(=O)Nc2cccc([N+](=O)[O-])c2)C(c2ccc(O)cc2)NC(=O)N1 (centres undefined) | > 6.25
40 | CC1=C(C(=O)Nc2ccc(Cl)cc2)C(c2ccc([N+](=O)[O-])cc2)NC(=O)N1 (centres undefined) | > 6.25
41 | COc1ccc(NC(=O)C2=C(C)NC(=O)NC2c2ccc([N+](=O)[O-])cc2)cc1 (centres undefined) | > 6.25
42 | CC1=C(C(=O)Nc2ccccc2)C(c2ccc([N+](=O)[O-])cc2)NC(=O)N1 (centres undefined) | > 6.25
43 | CC1=C(C(=O)Nc2ccccc2F)C(c2ccc([N+](=O)[O-])cc2)NC(=O)N1 (centres undefined) | > 6.25
44 | CC1=C(C(=O)Nc2ccccc2F)C(c2ccc(O)cc2)NC(=O)N1 (centres undefined) | > 6.25
45 | CC1=C(C(=O)Nc2ccc(C)cc2C)C(c2ccc([N+](=O)[O-])cc2)NC(=O)N1 (centres undefined) | > 6.25
46 | CC1=C(C(=O)Nc2ccc(F)cc2)C(c2cccc(Cl)c2)NC(=O)N1 (centres undefined) | > 6.25
47 | CC1=C(C(=O)Nc2ccccc2Cl)C(c2ccccc2[N+](=O)[O-])NC(=O)N1 (centres undefined) | > 6.25
48 | COc1ccc(C2NC(=O)NC(C)=C2C(=O)Nc2cc(C)ccc2C)cc1 (centres undefined) | > 6.25
49 | CC1=C(C(=O)Nc2ccccc2C)C(c2cccc([N+](=O)[O-])c2)NC(=O)N1 (centres undefined) | > 6.25
50 | CC1=C(C(=O)Nc2ccc(F)c(Cl)c2)C(c2ccc([N+](=O)[O-])cc2)NC(=O)N1 (centres undefined) | > 6.25
51 | CC1=C(C(=O)Nc2cc(Cl)ccc2Cl)C(c2ccc([N+](=O)[O-])cc2)NC(=O)N1 (centres undefined) | > 6.25
52 | CC1=C(C(=O)Nc2cc(C)ccc2C)C(c2ccc([N+](=O)[O-])cc2)NC(=O)N1 (centres undefined) | > 6.25
53 | CC1=C(C(=O)Nc2ccccc2Cl)C(c2ccc(Cl)cc2)NC(=O)N1 (centres undefined) | > 6.25
54 | CC1=C(C(=O)Nc2ccc(C)cc2)C(c2cccc([N+](=O)[O-])c2)NC(=O)N1 (centres undefined) | > 6.25
55 | CC1=C(C(=O)Nc2ccccc2Cl)C(c2cccc([N+](=O)[O-])c2)NC(=O)N1 (centres undefined) | > 6.25
56 | CC1=C(C(=O)Nc2ccc(F)c(Cl)c2)C(c2cccc(Cl)c2)NC(=O)N1 (centres undefined) | > 6.25
57 | CC1=C(C(=O)Nc2ccc(C)c(C)c2)C(c2cccc([N+](=O)[O-])c2)NC(=O)N1 (centres undefined) | > 6.25
58 | CC1=C(C(=O)Nc2ccc(C)cc2C)C(c2ccc(O)cc2)NC(=O)N1 (centres undefined) | > 6.25
59 | CC1=C(C(=O)Nc2ccc(F)cc2)C(c2cccc([N+](=O)[O-])c2)NC(=O)N1 (centres undefined) | > 6.25
